Where two headings read alike, the source gives them in different places.
What was measured:
FOS mRNA [1] = details: in culture; susceptible cell lines A431, CAL27, and HN11; cited from earlier work
FOS expression = details: 14 days treatment, cited from earlier work
FOS mRNA [2] = test: FOS mRNA induction by quantitative RT-PCR in MCF-7 cells; format: cell-based, human; details: 100 ng/ml of EGF ligand, incubation 0-45 minutes
Protocol: A functional measurement of cellular activation includes FOS mRNA induction determined by quantitative RT-PCR. FOS is an early response gene associated with the EGFR pathway. In an experiment, MCF-7 cells were grown in normal growth conditions in 6 well plates to 80% confluency. Cells were gently scraped and exposed to increasing shear forces (0-800 dyne/cm^2 through the Harvard Pipetter) in addition to increasing incubation times (0-45 minutes) in the presence or absence of 100 ng/ml of EGF ligand (Sigma) prior to RNA extraction. FOS mRNA induction peaks at 30-45 minutes and returns to basal levels in approximately 60 minutes. FOS induction is also stimulated as a result of incubation with EGF ligand. […] See FIGS. 17 and 18 for a graphical depiction of the results obtained.

[3] = EGFR-sensitive A431, CAL27, and HN11 xenograft tumors, gefitinib (A431), erlotinib (CAL27, HN11)
[4] = resistant strains, xenografts, gefitinib (HuCCT1), erlotinib (Hep2)

Molecule	FOS mRNA levels (FOS mRNA [1])	increase in FOS expression in vivo (FOS expression; [3])	increase in FOS expression in vivo (FOS expression; [4])	FOS induction (FOS mRNA [2])
COc1cc2ncnc(Nc3ccc(F)c(Cl)c3)c2cc1OCCCN1CCOCC1 [gefitinib]	decrease FOS mRNA levels	abrogate the increase in FOS expression	not in resistant strains	
C#Cc1cccc(Nc2ncnc3cc(OCCOC)c(OCCOC)cc23)c1 [erlotinib]	decrease FOS mRNA levels	abrogate the increase in FOS expression	not in resistant strains	
EGF ligand: growth factor, tumor-cell stimulatory ligand (Sigma) (NSDSECPLSHDGYCLHDGVCMYIEALDKYACNCVVGYIGERCQYRDLKWWELR; Epidermal growth factor; UniProt P01133 971-1023, looked up)				stimulated

From US9121801B2, “Methods and devices for cellular analysis” (BioMarker Strategies, LLC, priority 2007, dated 2015)
